According to patent US8420100B2, “Tumor suppressor activating polypeptides and uses thereof” (Department of Biotechnology, priority 2006, dated 2013):

Tests used:
Assay type in all cases: cell-based
[1] = system: p53-driven p21 promoter in HEK 293 (p53+/+) cells; assay: p21 luciferase reporter assay in HEK 293 (p53+/+) cells; conditions: 10 μM peptide, 12 h
Procedure: TAT-SMAR1 WT peptide (P44) modulates p53 function: To examine whether P44 peptide could alone activate p53^−, luciferase reporter assays were performed following treatment of cells with the chimeric TAT-SMAR1 derived peptides. HEK 293 (p53^+/+) cells were transfected with p21 expression plasmid having luciferase reporter gene and K562 (p53^−/−) cells were co-transfected with p21 luciferase reporter and p53 constructs. […] (FIG. 2A, bar 3) and about 1.5 fold activation in p53^−/− cell line (FIG. 2B, bar 4).
FIG. 2. P44 peptide activates the p53-driven p21 gene expression in reporter assays. p21 promoter activity was checked in both HEK 293 (p53^+/+) (A) and K562 (P53^−/−) cells (B). Cells were transfected with either pG13 […] reporter plasmid, a p53-driven p21 promoter, in HEK 293 cells or cotransfected with wild-type (wt) p53 in K562 cells. After 24 h post-transfection, cells were treated for 12 h with 10 μM concentration of various TAT-SMAR1 chimeric peptides. Y axis represents the fold luciferase activity (mean±SD of three independent experiments).
Luciferase reporter assay: HEK 293 (p53^+/+) and K562 (p53^−/−) cells were grown in DMEM supplemented with 10% FBS in the presence of 5% CO2 at 37° C., a total number of 1×10^6, cells were plated on a 6-well plate. After 24 h, cells were transiently transfected using lipofectamine-2000 with either 1 μg of p21 expression plasmid having luciferase reporter gene or 5 μg p21 luciferase along with wt p53 construct in K562 cell line. Two micrograms of pRL-CMV (Renilla luciferase reporter plasmid) was included in all transfections to normalize the transfection efficiency. Thirty six hours post-transfection, cells were treated with 10 μM of either P44 peptide or its various mutants. The cells were harvested 12 h post-treatment, washed with PBS and lysed in 1× Passive lysis buffer (Promega). After three freeze-thaw cycles, cells were spun at 10,000 rpm at 4° C. for 20 min. The supernatants were collected and protein concentrations were estimated spectrophotometrically using Bradford reagent as (BioRad, CA). According to the manufacturer's instructions, luciferase activity was assessed using the dual luciferase assay reporter kit (Promega). The luciferase activity was measured by using Fluoroskan Ascent Luminometer (Labsystems). For all the luciferase assays, the data shown are the mean+SD of three independent experiments.

[2] = target: T1, p53 (serine-15 phosphorylation) (Homo sapiens, UniProt P04637); assay: Western blotting for total p53 and phospho serine-15 p53 in peptide-treated HEK 293 cells; conditions: for p53 activation (pSer-15 p53 level): HEK 293, 10 μM peptide, 12 h (FIG. 4A)
T1 construct: HEK 293 (p53^+/+) cells; endogenous in cells; host or cells: HEK 293
Procedure: (§1) P44 peptide controls the activity of cell cycle regulatory proteins: The minimal dose of P44 peptide that was functionally effective in activating p53 was evaluated by incubating HEK 293 cells with varying concentrations of P44 peptide (1-100 μM) (FIG. 3A) and after 12 h of incubation, protein lysates were prepared and processed for immunoblotting with total p53 (DO-1) and p53 ser-15 phospho-specific antibodies. […] However, there was a 4.5-fold increase in the expression of phosphorylated p53 (pSerine-15 p53) in P44 peptide-treated cells (FIG. 3A, lanes 2-6). To exclude the possibility that p53 activation is an effect of the protein transduction domain of HIV-1 TAT protein, similar set of experiment was performed using TAT-PTD peptide alone (consisting of only the 11-mer TAT-sequence). […] This observation reconfirmed that the RS domain (288-350 aa) of SMAR1 could exclusively activate p53 by mediating its phosphorylation specifically at serine-15 residue. Serine-15 phosphorylation of p53 is associated with its increased transcription efficiency, decreased affinity for MDM2, and its increased nuclear retention. One of the target genes activated by p53 is p21, an inhibitor of a subset of the cyclin-dependent kinases including cdc-2 (Sherr, C. J., and Roberts, J. M. (1999) Genes Dev. 13, 1501-1512). To evaluate the significance of peptide-mediated p53 activation, P44 peptide-treated lysates were further checked for tyrosine 15 phosphorylation of cdc2. […] HEK 293 cells were treated with SM peptide and checked for p53 as well as pcdc-2 levels.
(§2) Serine 347 residue of SMAR1: critical for mediating the effects of full-length SMAR1: Once it was established that the serine motif (SSSSYS) plays a pivotal role in SMAR1-mediated p53 activation, it got necessary to identify the serine residue within this motif that might be necessary in mediating these effects. To identify the critical serine residue within P44 peptide, various point-mutant peptides were custom synthesized, that varied with respect to the position of serine residue that was mutated (Table 1). To evaluate the functionality of mutant chimeric TAT-SMAR1 peptides [PS347A, PS348A, PS349A, PS350A and RS mutant (SM)] in comparison to the TAT-SMAR1 WT peptide (P44), HEK 293 cells were treated with 10 μM concentration of either of the peptides and protein lysates were prepared after 12 h incubation period. The lysates were then processed for immunoblotting with pSer-15 p53 and pcdc-2 antibodies. […] However, this was not the case with other mutated peptides. When the alanine was replaced back to serine at the 347 residue (FIG. 4A, lanes 3-5), the functionality of the peptide was restored as observed with increase in pcdc-2 levels. […] However, in case of SM (where serine residues from 347-350 were replaced by alanines) treated cells (FIG. 4A, lane 7), there was no difference in the pSer-15 p53 as well as pcdc-2 levels compared to either untreated or PS347A treated cells (FIG. 4A, lanes 1 and 2, respectively).
(§3) FIG. 3. P44 peptide activates p53-mediated cell cycle pathway. A, HEK 293 cells were seeded at a density of 5×10^5 and after 24 h, was incubated with increasing concentrations of the TAT-SMAR1 WT (P44) peptide. Protein lysates were prepared and then immunoblotted with antibodies to total p53, phospho serine-15. B, The same set of experiment was repeated with TAT PTD peptide representing the PTD carrier sequence alone and immunoblotted with phospho serine-15, in comparison of P44 treated cells. C, The status of phospho cdc-2 was further analyzed in P44 peptide treated cells. Total […] was used as an internal control. D, The same set of experiments were again repeated using TAT-SMAR1 RS mutant (SM) peptide and whole cell lysates were probed for phospho p53 serine-15 and pcdc-2 antibodies. […] was used as a loading control.
(§4) FIG. 4. Serine 347 residue of SMAR1 mediates p53 activation and stabilization. […]

[3] = system: cdc2 (tyrosine 15 phosphorylation, pcdc-2); assay: Western blotting for pcdc-2 in peptide-treated HEK 293 cells; conditions: for pcdc-2 level: HEK 293, 10 μM peptide, 12 h (FIG. 4A); for pcdc-2 level compared to untreated cells: HEK 293, peptide-treated lysates (FIG. 3C, 3D)
Procedure: as §1, §2, §3, §4

T1 sequence (P04637 whole entry): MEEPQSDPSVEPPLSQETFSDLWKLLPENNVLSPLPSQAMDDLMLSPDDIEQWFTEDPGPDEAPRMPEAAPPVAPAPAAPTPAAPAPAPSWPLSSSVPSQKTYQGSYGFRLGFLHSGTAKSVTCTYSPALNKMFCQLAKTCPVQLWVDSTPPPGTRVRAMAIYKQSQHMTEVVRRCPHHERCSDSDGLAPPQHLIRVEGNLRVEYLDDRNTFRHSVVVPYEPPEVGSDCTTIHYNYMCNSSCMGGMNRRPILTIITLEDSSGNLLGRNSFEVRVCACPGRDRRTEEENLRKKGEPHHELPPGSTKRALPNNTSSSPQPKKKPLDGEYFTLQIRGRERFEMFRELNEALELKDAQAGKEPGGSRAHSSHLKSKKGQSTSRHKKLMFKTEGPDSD

Sequence	activation of p53 (p21 promoter driven luciferase activity) [1]	p53 activation (pSer-15 p53 level) [2]	pcdc-2 level [3]	expression level of p53 phospho-serine 15 compared to untreated cells ([2]; HEK 293, SM peptide-treated lysates (FIG. 3D))	pcdc-2 level compared to untreated cells [3]	increase in expression of phosphorylated p53 (pSerine-15 p53) ([2]; HEK 293, P44 1-100 μM, 12 h) [fold]	total p53 expression (DO-1) ([2]; HEK 293, P44 1-100 μM, 12 h)
YGRKKRRQRRRTAWRRKQRGQSLAVKSFSRRTPSSASYSASETM [PS349A, point mutant of P44, serine 349 replaced by alanine]	No significant alteration	No significant decrease	increase	–	–	–	–
YGRKKRRQRRRTAWRRKQRGQSLAVKSFSRRTPASSSYSASETM [PS347A, point mutant of P44, serine 347 replaced by alanine]	complete loss	no significant activation	decreased	–	–	–	–
YGRKKRRQRRRTAWRRKQRGQSLAVKSFSRRTPSASSYSASETM [PS348A, point mutant of P44, serine 348 replaced by alanine]	No significant alteration	No significant decrease	increase	–	–	–	–
YGRKKRRQRRRTAWRRKQRGQSLAVKSFSRRTPSSSAYSASETM [PS350A, point mutant of P44, serine 350 replaced by alanine]	No significant alteration	No significant decrease	increase	–	–	–	–
YGRKKRRQRRRTAWRRKQRGQSLAVKSFSRRTPAAAAYSASETM [SM, P44 mutant where serine residues from 347-350 were replaced by alanines]	complete loss	no difference	no difference	no increase	no increase	–	–
YGRKKRRQRRRTAWRRKQRGQSLAVKSFSRRTPSSSSYSASETM [P44, 33 mer SMAR1 peptide (residues 324-357) conjugated with 11-mer TAT-PTD]	2 fold	–	increase	–	upregulation	4.5	slight increase
